Measured values as given in US20070231320A1, “Eggs having increased antibody titer and methods for making same” (priority 2006, published 2007).

What was measured:
Format in all cases: in vivo, Hyline-98 leghorn hens
[1] = system: anti-PLA2 antibody titer in egg yolk; assay: Egg yolk anti-PLA2 antibody titer by ELISA, third trial: indomethacin or aspirin in feed from day 14 after antigen; details: FIG. 3, inhibitor in feed from day 14 after PLA2 injection; for presence of anti-PLA2 antibodies in eggs: 21 days after exposure
Protocol: (§1) Eggs were cracked and the yolks and albumin were separated. The antibodies were extracted by a 1:10 dilution of yolk in acidified PBS (pH 5.0) for twelve hours. Antibody titer was assayed by enzyme-linked immunosorbent assay (ELISA) at twenty-eight, thirty-five and forty-two days after exposure to the antigen. Optical density was measured at 450 nm using an HRP enzyme reaction to detect antibody. A standard on each plate was defined as a “positive reaction,” which is defined as twice the optical density of an egg yolk diluted 1:2000 from a hen not immunized against the antigen.
In a third set of experiments, the hens were divided at 245 days of age into three treatment groups. On day one, the three groups were injected at the four sites with 1 ml total of 3 mg PLA2/ml of CFA and PBS in a 50/50 mixture. A control group (n=8) was fed standard breeder's mash for the entire trial. Starting on day fourteen after exposure to the antigen, a first test group (n=8) was fed standard breeder's mash supplemented with 50 mg of indomethacin/kg diet and a second test group (n=8) was fed standard breeder's mash supplemented with 1 g aspirin/kg diet.
Antibody titer was determined as in the first two trials at twenty-one, twenty-eight and sixty-three days after the injection of PLA2.

[2] = system: anti-PLA2 antibody titer in egg yolk; assay: Egg yolk anti-PLA2 antibody titer by ELISA, second trial: indomethacin or aspirin in feed for 24 h before antigen; details: for anti-PLA2 antibody titer in eggs vs control hens / presence of anti-PLA2 antibodies in eggs: FIG. 2, 50 mg indomethacin/kg diet or 1 g aspirin/kg diet for 24 h before PLA2 injection; for anti-PLA2 antibody titer in eggs vs control hens: 35 and 42 days after exposure; for presence of anti-PLA2 antibodies in eggs: 21 days after exposure
Protocol: as §1
In a second set of trials, the hens were divided at 300 days of age into three treatment groups. For twenty-four hours after the groups were established, a control group (n=6) was fed standard breeder's mash, a first test group (n=6) was fed standard breeder's mash supplemented with 50 mg of indomethacin/kg diet, and a second test group (n=6) was fed standard breeder's mash supplemented with 1 g aspirin/kg diet. After twenty-four hours, the three groups were injected at the four sites with 1 ml total of 3 mg PLA2/ml of CFA and PBS in a 50/50 mixture. Booster injections were given as described above.
Antibody titer was determined as in the first trial at twenty-one, twenty-eight, thirty-five and forty-two days after exposure to the antigen.

[3] = system: anti-PLA2 antibody titer in egg yolk; assay: Egg yolk anti-PLA2 antibody titer by ELISA, first trial: COX inhibitor in feed for 24 h before antigen; details: 50 mg indomethacin/kg diet for 24 h before PLA2 injection
Protocol: Hyline-98 leghorn hens were randomly assigned to treatment groups and given free access to standard breeder's mash and water. In a first set of trials, the hens were divided at 245 days of age into two treatment groups. For twenty four hours after the groups were established, a control group (n=6) was fed standard breeder's mash and a test group (n=6) was fed standard breeder's mash supplemented with 50 mg of indomethacin/ kg diet. After twenty four hours, both groups were injected intramuscularly (i.m.) at four sites (each breast muscle and each leg muscle) with 1 ml total of 3 mg PLA2/ml of complete Freund's adjuvant (CFA; Sigma, St. Louis, Mo.) and phosphate buffered saline (PBS) in a 50/50 mixture. Hens were given an i.m. booster injection over the four sites seven days after initial injection with 1 ml total of a 3 mg PLA2/ml of incomplete Freund's adjuvant (IFA; Sigma) and PBS in a 50/50 mixture.
as §1

Structure (SMILES)	anti-PLA2 antibody titer in eggs compared to control ([1]; 21 and 28 days after exposure)	presence of anti-PLA2 antibodies in eggs [1]	anti-PLA2 antibody titer in eggs compared to control ([1]; 63 days after exposure)	anti-PLA2 antibody titer of eggs relative to eggs from control hens ([2]; 1 g aspirin/kg diet for 24 h before PLA2 injection, 42 days after exposure)	effectiveness at increasing antibody titer, aspirin compared with indomethacin ([2]; 1 g aspirin/kg diet vs 50 mg indomethacin/kg diet for 24 h before PLA2 injection)	anti-PLA2 antibody titer in eggs vs control hens [2]	presence of anti-PLA2 antibodies in eggs [2]	anti-PLA2 antibody titer of eggs relative to eggs from control hens ([3]; 42 days after exposure)	anti-PLA2 antibody titer in eggs vs control hens ([3]; FIG. 1, 28, 35 and 42 days after exposure)	presence of antigen-specific anti-PLA2 antibodies in eggs ([3]; FIG. 1, by 28 days after exposure)
CC(=O)Oc1ccccc1C(=O)O [aspirin]	not significantly different	contained anti-PLA2 antibodies	control group had a higher antibody titer	nearly three times	more effective	significantly increased	had anti-PLA2 antibodies			
COc1ccc2c(c1)c(CC(=O)O)c(C)n2C(=O)c1ccc(Cl)cc1 [indomethacin]	not significantly different	contained anti-PLA2 antibodies	control group had a higher antibody titer			significantly increased	had anti-PLA2 antibodies	nearly triple	significantly increased	contained antigen-specific anti-PLA2 antibodies
